The text below walks through data of patent US8796288B2, “Anhydrous crystalline forms of N-[1-(2-ethoxyethyl)-5-(N-ethyl-N-methylamino)-7-(4-methylpyridin-2-yl-amino)-1H-pyrazolo[4,3-d]pyrimidine-3-carbonyl]methanesulfonamide” (Pfizer Inc., priority 2005, dated 2014).

The nature of data set [1]: Stability of Form A and Form B (slurry conversion in methanol with PXRD, DSC comparison). The class given is physicochemical.
Experimental: Form A, Form B and Form C were each analyzed using differential scanning calorimetry (DSC). A TA Instruments Q1000 differential scanning calorimeter was used to perform each analysis. Each sample was heated from 25 to 300° C. at 20° C. per minute in an aluminium pan with the lid laid on top, with a nitrogen purge gas. The temperature of the melting endothermic peak was reported as the melting point.
Approximately 25 mg of Form A (see Example 3) was slurried at room temperature with 1 ml of methanol. […] A small sample was removed from the slurry.
The thermodynamically stabilities of Form A and Form B were compared as described below. First, approximately 25 mg of Form A was slurried in approximately 1 ml of methanol. […] A small sample was removed from the slurry.
Data set [2] is described as follows: Stability of Form B and Form C (bridging slurry studies, PXRD analysis). It is filed as physicochemical. The protocol: Bridging studies were performed in the following solvent systems to determine the relative thermodynamic stabilities of Form B and Form C: (1) THF/H2O (50:50 volume/volume), (2) methyl ethyl ketone (“MEK”), (3) methanol, and (4) methanol/dichloromethane (DCM) (50:50 volume/volume). The MEK study was performed at room temperature while the studies with the other three solvent systems were performed at both 40° C. and 60° C. In each study a suspension of Form B in the appropriate solvent system was prepared. Approximately 10 mg of Form C was then added to each suspension. The suspensions were then allowed to slurry at the appropriate temperature for a specific period of time. The solvent system, temperature of the solvent system, and period of time over which the suspension was allowed to slurry are set forth below for each study: • (1) Study A: Slurried for 3 days in MEK at room temperature; • (2) Study B: Slurried for 3 days in THF/H2O (50:50) at 40° C.; • (3) Study C: Slurried for 3 days in THF/H2O (50:50) at 60° C.; • (4) Study D: Slurried for 21 days in Methanol at 40° C.; • (5) Study E: Slurried for 21 days in Methanol at 60° C.; • (6) Study F: Slurried for 5 days in Methanol/DCM at 40° C.; and • (7) Study G: Slurried for 21 days in Methanol/DCM at 60° C.
At the end of the specified time period, a sample was removed from each slurry and analyzed by PXRD. […]

Entries after “also recorded” stand apart in the source; their conditions may differ.

As to `CCOCCn1nc(C(=O)NS(C)(=O)=O)c2nc(N(C)CC)nc(Nc3cc(C)ccn3)c21` [Form A, N-[1-(2-ethoxyethyl)-5-(N-ethyl-N-methylamino)-7-(4-methylpyridin-2-yl-amino)-1H-pyrazolo[4,3-d]pyrimidine-3-carbonyl]methanesulfonamide], in data set [1] (approximately 25 mg slurried in approximately 1 ml of methanol), the “crystalline form found by PXRD after slurrying” value is recorded as “Form B”.

Regarding `CCOCCn1nc(C(=O)NS(C)(=O)=O)c2nc(N(C)CC)nc(Nc3cc(C)ccn3)c21` [Form B, N-[1-(2-ethoxyethyl)-5-(N-ethyl-N-methylamino)-7-(4-methylpyridin-2-yl-amino)-1H-pyrazolo[4,3-d]pyrimidine-3-carbonyl]methanesulfonamide], the “relative thermodynamic stability of Form A and Form B” value in data set [1] (from slurry conversion analysis and DSC analysis, ambient as well as elevated temperatures) is given as “more thermodynamically stable than Form A”. Further, the “relative thermodynamic stability of Form B and Form C above the crossover point” value in data set [2] (temperatures above the crossover point) is “more thermodynamically stable than Form C; also recorded: most thermodynamically stable form”.

As for `CCOCCn1nc(C(=O)NS(C)(=O)=O)c2nc(N(C)CC)nc(Nc3cc(C)ccn3)c21` [Form C, N-[1-(2-ethoxyethyl)-5-(N-ethyl-N-methylamino)-7-(4-methylpyridin-2-yl-amino)-1H-pyrazolo[4,3-d]pyrimidine-3-carbonyl]methanesulfonamide], in data set [2] (temperatures below the crossover point (including ambient)), the “relative thermodynamic stability of Form B and Form C below the crossover point” value is listed as “more thermodynamically stable than Form B; also recorded: most thermodynamically stable form”.
